This is an account of results in ChEMBL document CHEMBL3351367, “Base-dependent formation of cis and trans olefins and their application in the synthesis of 5-oxo-ETE receptor antagonists” (Bioorg Med Chem Lett, 2014).

In the assay the target is Oxoeicosanoid receptor 1 (Homo sapiens, UniProt Q8TDS5). Put plainly: Antagonist activity at 5-oxo-ETE receptor in human neutrophils assessed as inhibition of 5-oxo-ETE-induced Ca2+ mobilization incubated for 2 mins prior to 5-oxo-ETE addition by indo-1 staining-based spectrofluorometry. Format: functional. (In general: Calcium assays in cells follow changes in intracellular calcium, usually with a dye or a luminescent sensor.)
Oxoeicosanoid receptor 1, sequence (Q8TDS5 whole entry): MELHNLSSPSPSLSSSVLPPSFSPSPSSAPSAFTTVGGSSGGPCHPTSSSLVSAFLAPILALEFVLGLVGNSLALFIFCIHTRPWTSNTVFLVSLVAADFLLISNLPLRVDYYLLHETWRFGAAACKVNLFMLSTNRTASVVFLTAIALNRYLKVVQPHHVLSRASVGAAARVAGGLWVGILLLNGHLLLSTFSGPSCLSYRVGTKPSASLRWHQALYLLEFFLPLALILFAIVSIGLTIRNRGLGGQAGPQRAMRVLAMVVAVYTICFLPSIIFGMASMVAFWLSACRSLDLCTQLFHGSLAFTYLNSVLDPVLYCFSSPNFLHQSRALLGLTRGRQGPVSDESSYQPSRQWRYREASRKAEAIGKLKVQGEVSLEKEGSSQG

What is called IC50 is the concentration that inhibits the measured activity by half.

Regarding `CCCC/C=C/c1cc2ccc(Cl)cc2n1C(=O)CC(C)CC(=O)O` (configuration not stated), the IC50 was determined as 18.5 µM.

On to `CCCC/C=C\c1cc2ccc(Cl)cc2n1C(=O)CC(C)CC(=O)O` (configuration not stated), for which the concentration for half-maximal inhibition (IC50) came to 0.46 µM.
